The values that follow come from patent US20250195513A1, “DEGRADATION OF IRAK4 BY CONJUGATION OF IRAK4 INHIBITORS WITH E3 LIGASE LIGAND AND METHODS OF USE” (BeiGene, Ltd., priority 2022, published 2025).

Where only a bound is given, the exact number is not on record here.

Test [1] has as its target T1, IRAK4 (Homo sapiens, UniProt Q9NWZ3).
T1 construct: endogenous in cells; host or cells: Karpas299
T1 sequence (Q9NWZ3 1-460): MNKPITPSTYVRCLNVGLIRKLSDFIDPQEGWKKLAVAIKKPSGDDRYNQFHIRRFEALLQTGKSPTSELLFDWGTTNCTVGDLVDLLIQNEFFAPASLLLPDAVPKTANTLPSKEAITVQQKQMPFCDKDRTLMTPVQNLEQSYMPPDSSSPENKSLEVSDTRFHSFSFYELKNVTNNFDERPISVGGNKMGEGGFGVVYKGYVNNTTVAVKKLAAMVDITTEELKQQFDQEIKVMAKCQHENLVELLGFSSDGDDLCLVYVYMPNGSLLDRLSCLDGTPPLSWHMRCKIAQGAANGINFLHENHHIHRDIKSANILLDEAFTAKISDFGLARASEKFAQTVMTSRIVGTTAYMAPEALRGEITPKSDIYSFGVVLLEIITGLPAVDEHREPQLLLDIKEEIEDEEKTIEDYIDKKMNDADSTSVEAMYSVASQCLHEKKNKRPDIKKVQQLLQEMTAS
Nature of the test: IRAK4 Degradation Assay with Human Serum (Karpas299, HTRF/TR-FRET). The class given is cell-based. Conditions: Karpas-299 in human serum, 24 hrs treatment; for DC50: read-out: IRAK4 degradtion with human serum assay DC50; for Dmax: read-out: IRAK4 degradtion with human serum assay Dmax (%). How it is done:
IRAK4 degradation was measured using a TR-FRET-based method (Degorce, François, et al. Current chemical genomics. 2009, 3: 22). Karpas299 resuspended in Human serum AB (GEMINI, 100-512) were seeded into 96-well plates at the density of 0.2 million cells per well and then treated with a series dilution of compounds. After 24 hrs treatment, cells were pelleted via centrifugation and washed with PBS, add 40 μL lysis buffer (Cisbio) to each well after removal of the supernatant. Plates were then incubated at room temperature with shaking for 30 minutes. A total of 16 μL of cell lysates from each well of a 96-well plate was transferred to a 384-well white assay plate. IRAK4 level was quantitated using the HTRF kit as described by the manufacturer manual (Cisbio). FRET signals were measured using a PHERAstar FSX reader (BMG Labtech).
After treatment, add HTRF lysis buffer to each well; seal the plate and incubate 1 hour at room temperature on a plate shaker; Once the cells are lysed, 16 μL of cell lysate are transferred to a PE 384-well HTRF detection plate; 4 μL of pre-mixed HTRF antibodies are added to each well; Cover the plate with a plate sealer, spin 1000 rpm for 1 min, Incubate overnight at room temperature; Read on BMG PheraStar with HTRF protocol (337 nm-665 nm-620 nm).
The inhibition (degradation) percentage of the compound was calculated by the following equation: […]
The IC50 (DC50) value of a compound can be obtained by fitting the following equation
Wherein, X and Y are known values, and IC50, Hillslope, Top and Bottom are the parameters obtained by fitting with software. Y is the inhibition percentage (calculated from the equation), X is the concentration of the compound; IC50 is the concentration of the compound when the […] is reached. The smaller the IC50 value is, the stronger the inhibitory ability of the compound is. Vice versa, the higher the IC50 value is, the weaker the ability the inhibitory ability of the compound is; Hillslope represents the slope of the fitted curve, generally around 1 *; Bottom represents the minimum value of the curve obtained by data fitting, which is generally 0%±20%; Top represents the maximum value of the curve obtained by data fitting, which is generally 100%±20%. The experimental data were fitted by calculating and analyzing with Dotmatics data analysis software.

In test [2] the target is T1, IRAK4. The test is described as follows: IRAK4 Degradation Assay (Karpas299, HTRF/TR-FRET). It counts as cell-based. Conditions: Karpas-299 cells; for Dmax: maximum percentage of degradation. In outline: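 Compound potency as DC50 (IC50) came from four-parameter fits of percent IRAK4 degradation. IRAK4 was measured by HTRF (665/620 nm) in lysates of Karpas299 cells seeded at 0.2 million per well. Cells had been treated with compound dilutions for 5 or 24 h.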
In general terms: Time-resolved FRET reads energy transfer from a long-lived donor to a nearby acceptor.

Where [3] appears, read: 24 h treatment, read-out: IRAK4 in Karpas-299 (24 h) Dmax (%).
Setting [4] is: 24 h treatment, read-out: IRAK4 in Karpas-299 (24 h) DC50.
[5] abbreviates: 5 h treatment, read-out: IRAK4 in Karpas-299 (5 h) Dmax (%).
The mark [6] stands for this setting: 5 h treatment, read-out: IRAK4 in Karpas-299 (5 h) DC50.

On to `Cn1c(=O)n(C2CCC(=O)NC2=O)c2cccc(CCCN3CCN([C@H]4CC[C@H](n5cc6cc(NC(=O)c7ccc8cc(C#N)cnn78)c(C(C)(C)O)cc6n5)CC4)CC3)c21` (some centres unmarked) [Example 348, 3-cyano-N-(2-((1r,4r)-4-(4-(3-(1-(2,6-dioxopiperidin-3-yl)-3-methyl-2-oxo-2,3-dihydro-1H-benzo[d]imidazol-4-yl)propyl)piperazin-1-yl)cyclohexyl)-6-(2-hydroxypropan-2-yl)-2H-indazol-5-yl)pyrrolo[1,2-b]pyridazine-7-carboxamide], for which the DC50 was determined as 6.6 nM on IRAK4 [1] and 0.4 nM at IRAK4 [2] (setting [4]). Moreover, the Dmax at IRAK4 [1] stood at 95%; on IRAK4 [2] (setting [3]), 94%.

Consider `CC(C)(O)c1cc2nn(C3CCN(C4CCN(C(=O)[C@@H]5CCN(c6cc(F)c([C@H]7CCC(=O)NC7=O)c(F)c6)C5)CC4)CC3)cc2cc1NC(=O)c1ccc2cc(C#N)cnn12` [Example 347, 3-cyano-N-(2-(1′-((R)-1-(4-((R)-2,6-dioxopiperidin-3-yl)-3,5-difluorophenyl)pyrrolidine-3-carbonyl)-[1,4′-bipiperidin]-4-yl)-6-(2-hydroxypropan-2-yl)-2H-indazol-5-yl)pyrrolo[1,2-b]pyridazine-7-carboxamide], for which the DC50 stood at 25 nM at IRAK4 [1], 2.2 nM on IRAK4 [2] (setting [6]) and 1.3 nM at IRAK4 [2] (setting [4]). Further, the Dmax at IRAK4 [1] was found to be 103%; on IRAK4 [2] (setting [5]), 93%; at IRAK4 [2] (setting [3]), 96%.

As for `CC(C)(O)c1cc2nn([C@H]3CC[C@H](N4CCN(C5CCN(c6ccc7c(c6)CN(C6CCC(=O)NC6=O)C7=O)CC5)CC4)CC3)cc2cc1NC(=O)c1ccc2cc(C#N)cnn12` (some centres unmarked) [Example 417, 3-cyano-N-(2-((1r,4r)-4-(4-(1-(2-(2,6-dioxopiperidin-3-yl)-1-oxoisoindolin-5-yl)piperidin-4-yl)piperazin-1-yl)cyclohexyl)-6-(2-hydroxypropan-2-yl)-2H-indazol-5-yl)pyrrolo[1,2-b]pyridazine-7-carboxamide], the values for the DC50 on IRAK4 [1] and at IRAK4 [2] (setting [4]) were 4.5 nM and 0.9 nM, respectively. Moreover, the Dmax on IRAK4 [1] and at IRAK4 [2] (setting [3]) was 95% each time.

Take `O=C1CC[C@H](c2c(F)cc(N3CC(C(=O)N4CCN([C@H]5CC[C@H](n6cc7cc(NC(=O)c8cccc(C(F)(F)F)n8)c(C(=O)N[C@H]8C[C@H](CO)C8)cc7n6)CC5)CC4)C3)cc2F)C(=O)N1` [Example 167, 2-((1r,4R)-4-(4-(1-(4-((R)-2,6-dioxopiperidin-3-yl)-3,5-difluorophenyl)azetidine-3-carbonyl)piperazin-1-yl)cyclohexyl)-N-((1r,3R)-3-(hydroxymethyl)cyclobutyl)-5-(6-(trifluoromethyl)picolinamido)-2H-indazole-6-carboxamide]: the figures for the Dmax on IRAK4 [2] (setting [5]) and on IRAK4 [2] (setting [3]) were 94% and 99%, respectively. Further, the half-maximal degradation concentration (DC50) on IRAK4 [2] (setting [6]) came to 5.3 nM; at IRAK4 [2] (setting [4]), 0.8 nM.

As for `CC(C)(O)c1cc2nn(C3CCN([C@@H]4CCN(C(=O)C5CN(c6cc(F)c(N7CCC(=O)NC7=O)c(F)c6)C5)CC4(F)F)CC3)cc2cc1NC(=O)c1ccc2cc(C#N)cnn12` [Example 198, (R)-3-cyano-N-(2-(1′-(1-(4-(2,4-dioxotetrahydropyrimidin-1(2H)-yl)-3,5-difluorophenyl)azetidine-3-carbonyl)-3′,3′-difluoro-[1,4′-bipiperidin]-4-yl)-6-(2-hydroxypropan-2-yl)-2H-indazol-5-yl)pyrrolo[1,2-b]pyridazine-7-carboxamide], the Dmax at IRAK4 [2] (setting [3]) is 93%. The DC50 on IRAK4 [2] (setting [4]) was 9 nM.

As for `CC(C)(O)c1cc2nn([C@H]3CC[C@H](N4CCN(C(=O)[C@@H]5CCN(c6cc(F)c([C@H]7CCC(=O)NC7=O)c(F)c6)C5)CC4)CC3)cc2cc1NC(=O)c1cccn(C2CC2)c1=O` [Example 103, 1-cyclopropyl-N-(2-((1R,4r)-4-(4-((R)-1-(4-((R)-2,6-dioxopiperidin-3-yl)-3,5-difluorophenyl)pyrrolidine-3-carbonyl)piperazin-1-yl)cyclohexyl)-6-(2-hydroxypropan-2-yl)-2H-indazol-5-yl)-2-oxo-1,2-dihydropyridine-3-carboxamide], the Dmax at IRAK4 [2] (setting [3]) is 90%. In addition, the DC50 at IRAK4 [2] (setting [4]) came out at 4.4 nM.

In the case of `CC(C)(O)c1cc2nn([C@H]3CC[C@H](N4CCN(C5CCN(c6cc(F)c([C@H]7CCC(=O)NC7=O)c(F)c6)CC5)CC4)CC3)cc2cc1NC(=O)c1coc2cccnc12` [Example 405, N-(2-((1r,4r)-4-(4-(1-(4-((R)-2,6-dioxopiperidin-3-yl)-3,5-difluorophenyl)piperidin-4-yl)piperazin-1-yl)cyclohexyl)-6-(2-hydroxypropan-2-yl)-2H-indazol-5-yl)furo[3,2-b]pyridine-3-carboxamide], on IRAK4 [2] (setting [3]), the Dmax was determined as 96%. For the same compound, the DC50 at IRAK4 [2] (setting [4]) is 0.9 nM.

On to `CC(C)(O)c1cc2nn([C@H]3CC[C@H](N4CCN(C(=O)[C@@H]5CCN(c6cc(F)c([C@H]7CCC(=O)NC7=O)c(F)c6)C5)CC4)CC3)cc2cc1NC(=O)c1ccc2c(n1)C(F)(F)CCC2` [Example 172, N-(2-((1R,4r)-4-(4-((R)-1-(4-((R)-2,6-dioxopiperidin-3-yl)-3,5-difluorophenyl)pyrrolidine-3-carbonyl)piperazin-1-yl)cyclohexyl)-6-(2-hydroxypropan-2-yl)-2H-indazol-5-yl)-8,8-difluoro-5,6,7,8-tetrahydroquinoline-2-carboxamide], for which the Dmax at IRAK4 [2] (setting [3]) came out at 94%. Also, the DC50 on IRAK4 [2] (setting [4]) is 1.6 nM.

In the case of `O=C1CC[C@H](c2c(F)cc(N3CC(C(=O)N4CCN([C@H]5CC[C@H](n6cc(NC(=O)c7coc(-c8ccnc(NCC9CC9)c8)n7)c(C(F)F)n6)CC5)C(=O)C4)C3)cc2F)C(=O)N1` [Example 100, 2-(2-((cyclopropylmethyl)amino)pyridin-4-yl)-N-(3-(difluoromethyl)-1-((1r,4r)-4-(4-(1-(4-((R)-2,6-dioxopiperidin-3-yl)-3,5-difluorophenyl)azetidine-3-carbonyl)-2-oxopiperazin-1-yl)cyclohexyl)-1H-pyrazol-4-yl)oxazole-4-carboxamide], the Dmax at IRAK4 [2] (setting [3]) was determined as 97%. For the same compound, on IRAK4 [2] (setting [4]), the DC50 was 2.2 nM.

Consider `CC1(C)OC(c2ccc3cc(C#N)cnn23)=Nc2cc3cn(C4CCN(C5CCN(C(=O)[C@@H]6CCN(c7cc(F)c([C@H]8CCC(=O)NC8=O)c(F)c7)C6)CC5)CC4)nc3cc21` [Example 412, 7-(2-(1′-((R)-1-(4-((R)-2,6-dioxopiperidin-3-yl)-3,5-difluorophenyl)pyrrolidine-3-carbonyl)-[1,4′-bipiperidin]-4-yl)-8,8-dimethyl-2,8-dihydro-[1,3]oxazino[4,5-f]indazol-6-yl)pyrrolo[1,2-b]pyridazine-3-carbonitrile], for which, on IRAK4 [2] (setting [3]), the Dmax was 5%. Moreover, at IRAK4 [2] (setting [4]), the DC50 is over 10000 nM.

For the compound `CC(C)(O)c1cc2nn(C3CCN([C@H]4CCN(C(=O)C5CN(c6cc(F)c([C@H]7CCC(=O)NC7=O)c(F)c6)C5)CC4(F)F)CC3)cc2cc1NC(=O)c1ccc2cc(C#N)cnn12` [Example 287, 3-cyano-N-(2-((S)-1′-(1-(4-((R)-2,6-dioxopiperidin-3-yl)-3,5-difluorophenyl)azetidine-3-carbonyl)-3′,3′-difluoro-[1,4′-bipiperidin]-4-yl)-6-(2-hydroxypropan-2-yl)-2H-indazol-5-yl)pyrrolo[1,2-b]pyridazine-7-carboxamide], the Dmax at IRAK4 [2] (setting [3]) amounted to 94%. In addition, the DC50 on IRAK4 [2] (setting [4]) was 1.9 nM.

What is called DC50 is the concentration at which degradation of the target reaches its halfway point. The Dmax is the greatest extent of degradation seen.
